Assays:
Experiment in all cases: combination Emax (second highest fraction inhibited in the dose matrix, 72 h); higher = more inhibition; extreme values may be limits of the assay
[1] = test system: BICR78 (Oral Cavity Carcinoma)
In short: (§1)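 After 24 hours at 37°C and 5% CO2 in 1536-well plates, cells in DMEM/F12 or RPMI plus 10% FBS received two-drug dose matrices for 72 hours. Viability came from CellTiter-Glo 2.0 luminescence and was scaled as inhibition, anchored at 0 by vehicle wells and at 1 by blank wells. Combination Emax is taken as the second-highest inhibition in the matrix, and Bliss excess as the observed combination effect less EA + EB − EA·EB, with EA and EB the single-agent effects.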

[2] = test system: CAL-39 (Other Solid Carcinomas)
In short: as §1

D-392MG (Glioblastoma) = test system: D-392MG (Glioblastoma)
In short: as §1

[3] = test system: EFM-192A (Breast Carcinoma)
In short: as §1

[4] = test system: GDM-1 (Acute Myeloid Leukemia)
In short: as §1

[5] = test system: HCT-116 (Colorectal Carcinoma)
In short: as §1

[6] = test system: HLE (Hepatocellular Carcinoma)
In short: as §1

[7] = test system: HOP-92 (Non-Small Cell Lung Carcinoma)
In short: as §1

HuO9 (Osteosarcoma) = test system: HuO9 (Osteosarcoma)
In short: as §1

[8] = test system: KG-1 (Acute Myeloid Leukemia)
In short: as §1

[9] = test system: NCI-H1688 (Small Cell Lung Carcinoma)
In short: as §1

[10] = test system: NOMO-1 (Acute Myeloid Leukemia)
In short: as §1

[11] = test system: P31-FUJ (Acute Myeloid Leukemia)
In short: as §1

[12] = test system: PA-TU-8902 (Pancreatic Carcinoma)
In short: as §1

[13] = test system: RCC10RGB (Kidney Carcinoma)
In short: as §1

[14] = test system: SKN-3 (Head and Neck Carcinoma)
In short: as §1

[15] = test system: SNU-61 (Colorectal Carcinoma)
In short: as §1

Saos-2 (Osteosarcoma) = test system: Saos-2 (Osteosarcoma)
In short: as §1

[16] = test system: U-118-MG (Low Grade Glioma)
In short: as §1

[17] = test system: YT (Other Blood Carcinomas)
In short: as §1

Row | Compound | combination Emax [1] | combination Emax [2] | combination Emax (D-392MG (Glioblastoma)) | combination Emax [3] | combination Emax [4] | combination Emax [5] | combination Emax [6] | combination Emax [7] | combination Emax (HuO9 (Osteosarcoma)) | combination Emax [8] | combination Emax [9] | combination Emax [10] | combination Emax [11] | combination Emax [12] | combination Emax [13] | combination Emax [14] | combination Emax [15] | combination Emax (Saos-2 (Osteosarcoma)) | combination Emax [16] | combination Emax [17]
1 | COc1nnc2ccc(N3CCC(c4ccc(OCCN5CCN(C)C(=O)[C@H]5C)cc4)CC3)nn12 [AZD5153] + CCN(CCO)CCCOc1ccc2c(Nc3cc(CC(=O)Nc4cccc(F)c4)[nH]n3)ncnc2c1 [AZD2811] (first compound max 1 µM, 7x7, partner max 1 µM) | 0.542 | 0.691 | 0.456 | 0.361 | 0.952 | 0.759 | 0.521 | 0.402 | 0.673 | 0.789 | 0.389 | 0.961 | 0.982 | 0.323 | 0.565 | 0.462 | 0.429 | 0.601 | 0.362 | 0.666
2 | COc1nnc2ccc(N3CCC(c4ccc(OCCN5CCN(C)C(=O)[C@H]5C)cc4)CC3)nn12 [AZD5153] + C[C@@H]1COCCN1C2=NC(=NC(=C2)C3(CC3)[S@](=N)(=O)C)C4=C5C=CNC5=NC=C4 [AZD6738] (first compound max 1 µM, 7x7, partner max 10 µM) | 0.636 | 0.797 | 0.514 | 0.524 | 0.943 | 0.88 | 0.689 | 0.374 | 0.938 | 0.905 | 0.633 | 1 | 0.987 | 0.392 | 0.572 | 0.634 | 0.544 | 0.843 | 0.611 | 0.923
3 | COc1nnc2ccc(N3CCC(c4ccc(OCCN5CCN(C)C(=O)[C@H]5C)cc4)CC3)nn12 [AZD5153] + Cc1c2c(nn1C)CSCc1cc(n(C)n1)CSc1cc(c3ccccc3c1)OCCCc1c(C(=O)O)n(C)c3c-2c(Cl)ccc13 [AZD5991] (first compound max 1 µM, 7x7, partner max 1 µM) | 0.501 | 0.905 | 0.541 | 0.665 | 1 | 0.716 | 0.626 | 0.386 | 0.996 | 1 | 0.647 | 1 | 0.995 | 0.345 | 0.531 | 0.6 | 0.452 | 0.835 | 0.352 | 1
4 | COc1nnc2ccc(N3CCC(c4ccc(OCCN5CCN(C)C(=O)[C@H]5C)cc4)CC3)nn12 [AZD5153] + Cn1cnc2c(F)c(Nc3ccc(Br)cc3Cl)c(C(=O)NOCCO)cc21 [Selumetinib] (first compound max 1 µM, 7x7, partner max 10 µM) | 0.548 | 0.827 | 0.569 | 0.304 | 0.823 | 0.866 | 0.341 | 0.556 | 0.706 | 0.817 | 0.384 | 1 | 0.985 | 0.527 | 0.574 | 0.531 | 0.69 | 0.516 | 0.362 | 0.693
5 | Cc1c2c(nn1C)CSCc1cc(n(C)n1)CSc1cc(c3ccccc3c1)OCCCc1c(C(=O)O)n(C)c3c-2c(Cl)ccc13 [AZD5991] + C1CN(CCC1(C(=O)N[C@@H](CCO)C2=CC=C(C=C2)Cl)N)C3=NC=NC4=C3C=CN4 [Capivasertib] (first compound max 1 µM, 7x7, partner max 3 µM) | 0.266 | 0.384 | 0.495 | 0.67 | 0.454 | 0.24 | 0.279 | 0.402 | 1 | 1 | 0.322 | 0.909 | 0.99 | 0.174 | 0.298 | 0.121 | 0.117 | 0.52 | 0.289 | 1
6 | Cc1c2c(nn1C)CSCc1cc(n(C)n1)CSc1cc(c3ccccc3c1)OCCCc1c(C(=O)O)n(C)c3c-2c(Cl)ccc13 [AZD5991] + C=CCn1c(=O)c2cnc(Nc3ccc(N4CCN(C)CC4)cc3)nc2n1-c1cccc(C(C)(C)O)n1 [AZD1775] (first compound max 1 µM, partner max 1 µM) | 0.381 | 0.677 | 0.417 | 0.71 | 0.961 | 0.641 | 0.849 | 0.807 | 1 | 1 | 0.601 | 0.989 | 0.99 | 0.31 | 0.541 | 0.696 | 0.49 | 0.801 | 0.339 | 0.998
7 | Cc1c2c(nn1C)CSCc1cc(n(C)n1)CSc1cc(c3ccccc3c1)OCCCc1c(C(=O)O)n(C)c3c-2c(Cl)ccc13 [AZD5991] + CC1(C)CCC(CN2CCN(c3ccc(C(=O)NS(=O)(=O)c4ccc(NCC5CCOCC5)c([N+](=O)[O-])c4)c(Oc4cnc5[nH]ccc5c4)c3)CC2)=C(c2ccc(Cl)cc2)C1 [Venetoclax] (first compound max 1 µM, 7x7, partner max 1 µM) | 0.18 | 0.292 | 0.791 | 0.873 | 0.999 | 0.163 | 0.287 | 0.44 | 1 | 1 | 0.702 | 0.981 | 0.998 | 0.139 | 0.221 | 0.15 | 0.155 | 0.534 | 0.196 | 1
8 | Cc1c2c(nn1C)CSCc1cc(n(C)n1)CSc1cc(c3ccccc3c1)OCCCc1c(C(=O)O)n(C)c3c-2c(Cl)ccc13 [AZD5991] + CCN(CCO)CCCOc1ccc2c(Nc3cc(CC(=O)Nc4cccc(F)c4)[nH]n3)ncnc2c1 [AZD2811] (first compound max 1 µM, 7x7, partner max 1 µM) | 0.304 | 0.815 | 0.403 | 0.699 | 0.949 | 0.438 | 0.579 | 0.689 | 0.991 | 1 | 0.314 | 0.93 | 0.994 | 0.212 | 0.292 | 0.271 | 0.254 | 0.816 | 0.342 | 1
9 | Cc1c2c(nn1C)CSCc1cc(n(C)n1)CSc1cc(c3ccccc3c1)OCCCc1c(C(=O)O)n(C)c3c-2c(Cl)ccc13 [AZD5991] + CN(C)CCCOc1ccc(-c2ccc3ncc4c(c3c2)n(C2CCOCC2)c(=O)n4C)cn1 [AZD0156] (first compound max 1 µM, 7x7, partner max 1 µM) | 0.219 | 0.515 | 0.252 | 0.587 | 0.549 | 0.265 | 0.39 | 0.41 | 1 | 1 | 0.276 | 0.863 | 0.974 | 0.192 | 0.243 | 0.339 | 0.196 | 0.239 | 0.27 | 1
10 | Cc1c2c(nn1C)CSCc1cc(n(C)n1)CSc1cc(c3ccccc3c1)OCCCc1c(C(=O)O)n(C)c3c-2c(Cl)ccc13 [AZD5991] + C[C@@H]1COCCN1C2=NC(=NC(=C2)C3(CC3)[S@](=N)(=O)C)C4=C5C=CNC5=NC=C4 [AZD6738] (first compound max 1 µM, 7x7, partner max 10 µM) | 0.612 | 0.645 | 0.427 | 0.735 | 0.91 | 0.63 | 0.802 | 0.723 | 1 | 1 | 0.47 | 0.995 | 0.998 | 0.26 | 0.43 | 0.687 | 0.349 | 0.6 | 0.506 | 1
11 | Cc1c2c(nn1C)CSCc1cc(n(C)n1)CSc1cc(c3ccccc3c1)OCCCc1c(C(=O)O)n(C)c3c-2c(Cl)ccc13 [AZD5991] + Cc1cc2ncnn2cc1Nc1ncc2c(n1)n(C1CCOCC1)c(=O)n2C [AZD7648] (first compound max 1 µM, 7x7, partner max 10 µM) | 0.219 | 0.58 | 0.271 | 0.692 | 0.619 | 0.311 | 0.515 | 0.448 | 1 | 1 | 0.297 | 0.865 | 0.965 | 0.321 | 0.342 | 0.179 | 0.19 | 0.285 | 0.425 | 1
12 | Cc1c2c(nn1C)CSCc1cc(n(C)n1)CSc1cc(c3ccccc3c1)OCCCc1c(C(=O)O)n(C)c3c-2c(Cl)ccc13 [AZD5991] + Cn1cnc2c(F)c(Nc3ccc(Br)cc3Cl)c(C(=O)NOCCO)cc21 [Selumetinib] (first compound max 1 µM, 7x7, partner max 3 µM) | 0.441 | 0.874 | 0.364 | 0.511 | 0.374 | 0.523 | 0.326 | 0.456 | 1 | 1 | 0.411 | 1 | 0.998 | 0.293 | 0.497 | 0.387 | 0.464 | 0.247 | 0.326 | 1
13 | C[C@@H]1COCCN1c1cc(C2([S@](C)(=N)=O)CC2)nc(-c2ccnc3[nH]ccc23)n1 [AZD6738] + O=C(c1cc(Cc2n[nH]c(=O)c3ccccc23)ccc1F)N1CCN(C(=O)C2CC2)CC1 [Olaparib] (first compound max 10 µM, 7x7, partner max 10 µM) | 0.615 | 0.526 | 0.38 | 0.32 | 0.624 | 0.78 | 0.981 | 0.667 | 0.857 | 0.739 | 0.203 | 0.908 | 0.877 | 0.195 | 0.441 | 0.391 | 0.27 | 0.466 | 0.589 | 0.75

— the supplement of paper PMC11061612
